Measured values published in the kinase profiling compilation of Christmann-Franck et al. (2016).

Key:
Test in all cases: radiometric filter-binding kinase assay, Kinase HotSpot
Details in all cases: compound 0.5 µM; ATP 10 µM
[1] = molecular target: WEE1 (human) (UniProt P30291)
[2] = molecular target: PAK1 (human) (UniProt Q13153)
[3] = molecular target: ALK (human) (UniProt Q9UM73)
[4] = molecular target: WNK3 (human) (UniProt Q9BYP7)
[5] = molecular target: MAPKAPK5 (human) (UniProt Q8IW41)
[6] = molecular target: HIPK4 (human) (UniProt Q8NE63)
[7] = molecular target: CAMK4 (human) (UniProt Q16566)
[8] = molecular target: PRKCB2 (human) (UniProt P05771)
[9] = molecular target: CDC42BPB (human) (UniProt Q9Y5S2)
[10] = molecular target: PAK6 (human) (UniProt Q9NQU5)
[11] = molecular target: SGK2 (human) (UniProt Q9HBY8)
[12] = molecular target: MAP3K11 (human) (UniProt Q16584)
[13] = molecular target: RET (human) (UniProt P07949)
[14] = molecular target: MARK1 (human) (UniProt Q9P0L2)
[15] = molecular target: RPS6KA5 KD2 (human) (UniProt O75582)
[16] = molecular target: PAK3 (human) (UniProt O75914)
[17] = molecular target: MKNK2 (human) (UniProt Q9HBH9)
[18] = molecular target: NTRK2 (human) (UniProt Q16620)
[19] = molecular target: VRK1 (human) (UniProt Q99986)
[20] = molecular target: HIPK2 (human) (UniProt Q9H2X6)
[21] = molecular target: ZAP70 (human) (UniProt P43403)
[22] = molecular target: ADRBK2 (human) (UniProt P35626)
ADRBK2 (human), sequence (P35626 whole entry, looked up): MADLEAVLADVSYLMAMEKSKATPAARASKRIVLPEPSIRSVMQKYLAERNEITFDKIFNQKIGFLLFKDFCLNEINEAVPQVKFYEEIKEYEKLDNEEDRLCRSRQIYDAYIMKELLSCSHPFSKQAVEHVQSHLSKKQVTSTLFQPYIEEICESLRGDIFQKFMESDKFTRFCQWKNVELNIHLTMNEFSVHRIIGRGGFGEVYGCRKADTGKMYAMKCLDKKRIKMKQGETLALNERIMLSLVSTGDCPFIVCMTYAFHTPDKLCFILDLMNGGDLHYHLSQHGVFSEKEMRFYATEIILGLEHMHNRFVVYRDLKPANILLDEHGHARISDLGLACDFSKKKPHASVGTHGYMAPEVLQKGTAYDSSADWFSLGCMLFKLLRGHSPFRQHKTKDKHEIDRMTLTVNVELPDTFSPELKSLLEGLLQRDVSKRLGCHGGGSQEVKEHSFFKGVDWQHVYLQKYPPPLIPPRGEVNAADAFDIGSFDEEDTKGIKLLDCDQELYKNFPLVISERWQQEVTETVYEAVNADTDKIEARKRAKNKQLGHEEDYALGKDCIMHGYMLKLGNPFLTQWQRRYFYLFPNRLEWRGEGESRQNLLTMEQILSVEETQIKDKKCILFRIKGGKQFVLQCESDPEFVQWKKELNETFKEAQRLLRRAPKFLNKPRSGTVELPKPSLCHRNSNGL

[23] = molecular target: IGF1R (human) (UniProt P08069)
[24] = molecular target: CAMKK1 (human) (UniProt Q8N5S9)
[25] = molecular target: MYLK2 (human) (UniProt Q9H1R3)
MYLK2 (human), sequence (Q9H1R3 whole entry, looked up): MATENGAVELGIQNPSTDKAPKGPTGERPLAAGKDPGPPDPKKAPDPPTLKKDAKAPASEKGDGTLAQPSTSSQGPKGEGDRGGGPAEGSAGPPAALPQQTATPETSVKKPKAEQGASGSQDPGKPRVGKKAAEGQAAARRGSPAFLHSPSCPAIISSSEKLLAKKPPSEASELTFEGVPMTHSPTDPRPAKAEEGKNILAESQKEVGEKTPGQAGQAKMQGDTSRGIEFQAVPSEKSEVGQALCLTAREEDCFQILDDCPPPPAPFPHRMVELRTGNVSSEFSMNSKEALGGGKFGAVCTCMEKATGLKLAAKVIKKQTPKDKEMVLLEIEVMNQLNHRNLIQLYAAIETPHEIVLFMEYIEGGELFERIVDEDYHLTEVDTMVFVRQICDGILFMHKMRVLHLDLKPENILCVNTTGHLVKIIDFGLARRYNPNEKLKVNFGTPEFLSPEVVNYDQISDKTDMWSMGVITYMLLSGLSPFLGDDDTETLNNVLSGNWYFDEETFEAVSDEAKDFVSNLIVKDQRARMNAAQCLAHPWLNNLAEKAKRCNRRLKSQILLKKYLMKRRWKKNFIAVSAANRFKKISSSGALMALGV

[26] = molecular target: CDK2 CCNA2 (human) (UniProt P24941+P20248)
[27] = molecular target: TXK (human) (UniProt P42681)
[28] = molecular target: ROCK2 (human) (UniProt O75116)
ROCK2 (human), sequence (O75116 whole entry, looked up): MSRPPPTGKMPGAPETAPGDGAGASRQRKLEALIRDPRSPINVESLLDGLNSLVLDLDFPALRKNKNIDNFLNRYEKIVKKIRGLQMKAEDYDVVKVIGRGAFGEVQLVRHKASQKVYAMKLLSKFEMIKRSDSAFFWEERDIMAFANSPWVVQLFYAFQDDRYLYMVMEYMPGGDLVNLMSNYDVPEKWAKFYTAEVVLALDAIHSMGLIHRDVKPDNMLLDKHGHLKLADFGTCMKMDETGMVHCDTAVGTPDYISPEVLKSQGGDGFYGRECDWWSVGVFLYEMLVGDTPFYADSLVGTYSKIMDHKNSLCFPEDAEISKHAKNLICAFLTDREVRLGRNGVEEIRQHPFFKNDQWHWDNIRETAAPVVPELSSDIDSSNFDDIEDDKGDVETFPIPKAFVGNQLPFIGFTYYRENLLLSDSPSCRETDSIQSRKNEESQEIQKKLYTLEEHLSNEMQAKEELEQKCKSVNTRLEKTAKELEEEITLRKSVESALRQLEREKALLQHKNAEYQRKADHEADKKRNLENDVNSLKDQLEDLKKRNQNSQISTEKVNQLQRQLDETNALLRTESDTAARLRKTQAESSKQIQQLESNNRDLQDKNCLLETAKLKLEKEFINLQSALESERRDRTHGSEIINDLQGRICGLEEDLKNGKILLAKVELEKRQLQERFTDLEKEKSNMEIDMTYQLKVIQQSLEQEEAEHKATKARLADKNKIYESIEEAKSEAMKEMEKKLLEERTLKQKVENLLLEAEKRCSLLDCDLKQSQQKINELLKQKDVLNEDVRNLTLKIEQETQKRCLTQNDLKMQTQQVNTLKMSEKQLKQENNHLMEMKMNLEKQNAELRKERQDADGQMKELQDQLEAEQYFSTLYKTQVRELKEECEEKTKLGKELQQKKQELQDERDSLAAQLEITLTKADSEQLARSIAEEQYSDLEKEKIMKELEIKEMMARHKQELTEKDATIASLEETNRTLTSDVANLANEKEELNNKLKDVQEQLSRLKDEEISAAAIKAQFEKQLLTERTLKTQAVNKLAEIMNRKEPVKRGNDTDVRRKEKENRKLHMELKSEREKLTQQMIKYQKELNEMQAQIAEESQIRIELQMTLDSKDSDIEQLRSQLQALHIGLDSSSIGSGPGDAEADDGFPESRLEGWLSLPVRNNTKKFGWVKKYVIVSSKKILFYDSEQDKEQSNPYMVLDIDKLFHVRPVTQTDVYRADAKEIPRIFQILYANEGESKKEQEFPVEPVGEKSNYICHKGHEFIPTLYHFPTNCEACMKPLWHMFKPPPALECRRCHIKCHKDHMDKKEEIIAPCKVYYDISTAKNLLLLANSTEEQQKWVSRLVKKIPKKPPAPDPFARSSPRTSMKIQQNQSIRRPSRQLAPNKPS

[29] = molecular target: PRKCZ (human) (UniProt Q05513)
[30] = molecular target: BRSK1 (human) (UniProt Q8TDC3)
[31] = molecular target: EPHA4 (human) (UniProt P54764)
[32] = molecular target: MELK (human) (UniProt Q14680)
MELK (human), sequence (Q14680 whole entry, looked up): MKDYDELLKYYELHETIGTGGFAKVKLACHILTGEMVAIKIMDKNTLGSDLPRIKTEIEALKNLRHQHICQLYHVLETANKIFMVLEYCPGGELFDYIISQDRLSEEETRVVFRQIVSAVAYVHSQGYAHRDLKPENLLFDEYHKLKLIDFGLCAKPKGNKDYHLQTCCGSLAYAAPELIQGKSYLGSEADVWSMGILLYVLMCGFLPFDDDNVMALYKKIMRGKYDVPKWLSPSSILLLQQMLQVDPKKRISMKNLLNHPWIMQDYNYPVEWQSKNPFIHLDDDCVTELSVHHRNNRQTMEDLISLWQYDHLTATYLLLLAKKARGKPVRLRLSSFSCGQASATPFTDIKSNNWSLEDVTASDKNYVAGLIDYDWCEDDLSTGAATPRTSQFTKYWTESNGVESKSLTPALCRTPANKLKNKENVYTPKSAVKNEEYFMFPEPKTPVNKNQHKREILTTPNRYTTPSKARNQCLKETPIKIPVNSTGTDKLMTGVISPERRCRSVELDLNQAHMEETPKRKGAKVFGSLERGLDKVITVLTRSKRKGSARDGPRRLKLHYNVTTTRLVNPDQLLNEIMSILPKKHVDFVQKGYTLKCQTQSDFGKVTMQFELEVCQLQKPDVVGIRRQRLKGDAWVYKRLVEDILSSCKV

[33] = molecular target: MAP3K3 (human) (UniProt Q99759)
[34] = molecular target: NEK11 (human) (UniProt Q8NG66)
[35] = molecular target: MARK4 (human) (UniProt Q96L34)
[36] = molecular target: MAPK9 (human) (UniProt P45984)
[37] = molecular target: STK11 (human) (UniProt Q15831)
[38] = molecular target: PHKG1 (human) (UniProt Q16816)
[39] = molecular target: DAPK3 (human) (UniProt O43293)
[40] = molecular target: PRKCE (human) (UniProt Q02156)
[41] = molecular target: STK24 (human) (UniProt Q9Y6E0)
[42] = molecular target: MET (human) (UniProt P08581)

WNK3 (human), sequence (Q9BYP7 whole entry, looked up): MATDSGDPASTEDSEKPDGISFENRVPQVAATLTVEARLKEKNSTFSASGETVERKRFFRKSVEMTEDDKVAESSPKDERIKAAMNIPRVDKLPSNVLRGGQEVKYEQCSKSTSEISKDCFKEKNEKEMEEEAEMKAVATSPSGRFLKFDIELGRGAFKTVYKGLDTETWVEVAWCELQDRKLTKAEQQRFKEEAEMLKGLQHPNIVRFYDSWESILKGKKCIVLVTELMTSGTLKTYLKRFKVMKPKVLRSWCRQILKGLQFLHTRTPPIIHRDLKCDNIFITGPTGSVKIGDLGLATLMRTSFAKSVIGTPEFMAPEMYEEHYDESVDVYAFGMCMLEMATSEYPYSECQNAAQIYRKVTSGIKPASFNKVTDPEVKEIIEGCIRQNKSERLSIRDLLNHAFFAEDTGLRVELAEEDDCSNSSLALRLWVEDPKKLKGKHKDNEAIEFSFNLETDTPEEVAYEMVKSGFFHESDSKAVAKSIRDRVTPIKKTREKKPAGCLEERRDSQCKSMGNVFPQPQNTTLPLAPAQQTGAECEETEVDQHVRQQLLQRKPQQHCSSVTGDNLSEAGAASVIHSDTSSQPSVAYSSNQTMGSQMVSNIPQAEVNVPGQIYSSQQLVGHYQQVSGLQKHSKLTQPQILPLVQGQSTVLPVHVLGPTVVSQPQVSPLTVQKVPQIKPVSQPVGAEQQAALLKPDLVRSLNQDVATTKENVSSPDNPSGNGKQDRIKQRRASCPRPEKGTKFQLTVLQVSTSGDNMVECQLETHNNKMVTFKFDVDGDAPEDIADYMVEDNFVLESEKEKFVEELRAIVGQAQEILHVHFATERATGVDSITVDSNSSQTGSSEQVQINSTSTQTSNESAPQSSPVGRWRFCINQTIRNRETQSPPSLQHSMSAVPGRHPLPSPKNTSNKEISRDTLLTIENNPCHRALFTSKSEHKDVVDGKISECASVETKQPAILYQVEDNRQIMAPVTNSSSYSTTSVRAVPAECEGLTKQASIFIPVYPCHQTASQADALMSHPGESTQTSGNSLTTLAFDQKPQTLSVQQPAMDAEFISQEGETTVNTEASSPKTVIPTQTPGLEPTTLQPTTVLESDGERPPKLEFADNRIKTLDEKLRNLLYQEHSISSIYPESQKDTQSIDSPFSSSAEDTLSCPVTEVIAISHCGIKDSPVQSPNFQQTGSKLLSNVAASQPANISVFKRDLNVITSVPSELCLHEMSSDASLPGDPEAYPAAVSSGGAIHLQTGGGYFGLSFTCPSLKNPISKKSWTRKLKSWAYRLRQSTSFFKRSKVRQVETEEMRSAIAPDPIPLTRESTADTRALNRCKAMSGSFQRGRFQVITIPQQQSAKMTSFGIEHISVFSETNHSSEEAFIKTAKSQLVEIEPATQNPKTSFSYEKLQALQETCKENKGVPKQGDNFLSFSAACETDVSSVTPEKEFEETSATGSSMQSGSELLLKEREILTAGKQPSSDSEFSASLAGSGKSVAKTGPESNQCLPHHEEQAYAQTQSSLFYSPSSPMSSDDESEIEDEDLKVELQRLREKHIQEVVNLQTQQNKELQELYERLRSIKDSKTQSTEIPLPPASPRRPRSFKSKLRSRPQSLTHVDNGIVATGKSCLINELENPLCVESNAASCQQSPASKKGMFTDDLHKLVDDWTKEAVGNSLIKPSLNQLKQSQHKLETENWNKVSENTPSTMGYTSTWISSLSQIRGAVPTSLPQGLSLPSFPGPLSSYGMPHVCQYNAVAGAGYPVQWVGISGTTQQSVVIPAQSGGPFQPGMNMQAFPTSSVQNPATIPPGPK

O=C1Cc2c([nH]c3ccc([N+](=O)[O-])cc23)-c2ccccc2N1
residual activity [1]: 98.2% | residual activity [2]: 36.7% | residual activity [3]: 94.2% | residual activity [4]: 99.7% | residual activity [5]: 92.7% | residual activity [6]: 103% | residual activity [7]: 89.2% | residual activity [8]: 105% | residual activity [9]: 83.3% | residual activity [10]: 101% | residual activity [11]: 111% | residual activity [12]: 11.8% | residual activity [13]: 81.6% | residual activity [14]: 62.5% | residual activity [15]: 107% | residual activity [16]: 80.4% | residual activity [17]: 92.9% | residual activity [18]: 86.1% | residual activity [19]: 90.8% | residual activity [20]: 110% | residual activity [21]: 91.4% | residual activity [22]: 88.9% | residual activity [23]: 93% | residual activity [24]: 91.7% | residual activity [25]: 94.8% | residual activity [26]: 8.37% | residual activity [27]: 87.3% | residual activity [28]: 82% | residual activity [29]: 109% | residual activity [30]: 39.7% | residual activity [31]: 96.5% | residual activity [32]: 71.7% | residual activity [33]: 100% | residual activity [34]: 95.4% | residual activity [35]: 55.4% | residual activity [36]: 97.2% | residual activity [37]: 90.2% | residual activity [38]: 9.22% | residual activity [39]: 103% | residual activity [40]: 111% | residual activity [41]: 66.4% | residual activity [42]: 117%

Nc1nc(Nc2ccc(S(N)(=O)=O)cc2)nn1C(=S)Nc1c(F)cccc1F
residual activity [1]: 100% | residual activity [2]: 29% | residual activity [3]: 16.7% | residual activity [4]: 82.2% | residual activity [5]: 52.2% | residual activity [6]: 50.6% | residual activity [7]: 98.8% | residual activity [8]: 74.5% | residual activity [9]: 48.1% | residual activity [10]: 81.9% | residual activity [11]: 42% | residual activity [12]: 1.33% | residual activity [13]: 3.09% | residual activity [14]: 2.68% | residual activity [15]: 68.1% | residual activity [16]: 35.4% | residual activity [17]: 17.2% | residual activity [18]: 11.8% | residual activity [19]: 94.6% | residual activity [20]: 62.1% | residual activity [21]: 86.9% | residual activity [22]: 88% | residual activity [23]: 0.625% | residual activity [24]: 36% | residual activity [25]: 66.6% | residual activity [26]: 1.56% | residual activity [27]: 85.8% | residual activity [28]: 6.22% | residual activity [29]: 83.7% | residual activity [30]: 2.61% | residual activity [31]: 54.8% | residual activity [32]: 32.7% | residual activity [33]: 5.41% | residual activity [34]: 101% | residual activity [35]: 2.33% | residual activity [36]: 80.9% | residual activity [37]: 23.5% | residual activity [38]: 26% | residual activity [39]: 94.2% | residual activity [40]: 11.5% | residual activity [41]: 2.88% | residual activity [42]: 40.4%
